Laboratory results from PubChem BioAssay (NCI).
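A five-concentration, 48-hour dose response in 96-well plates underlies each endpoint, interpolated linearly between surrounding concentrations. Definition used: TGI = concentration required for complete inhibition of growth.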

Assays:
Experiment in all cases: NCI-60 cell line screen, 48 h
SF-539 CNS = system: SF-539 CNS
OVCAR-8 ovarian = system: OVCAR-8 ovarian
SF-268 CNS = system: SF-268 CNS
LOX IMVI melanoma = system: LOX IMVI melanoma
HCC-2998 colon = system: HCC-2998 colon
UACC-257 melanoma = system: UACC-257 melanoma
HL-60(TB) leukemia = system: HL-60(TB) leukemia
HT29 colon = system: HT29 colon
SK-OV-3 ovarian = system: SK-OV-3 ovarian
MOLT-4 leukemia = system: MOLT-4 leukemia
SNB-75 CNS = system: SNB-75 CNS
RXF 393 renal = system: RXF 393 renal
MALME-3M melanoma = system: MALME-3M melanoma
COLO 205 colon = system: COLO 205 colon
HS 578T breast = system: HS 578T breast
OVCAR-3 ovarian = system: OVCAR-3 ovarian
SR leukemia = system: SR leukemia
OVCAR-4 ovarian = system: OVCAR-4 ovarian
CAKI-1 renal = system: CAKI-1 renal
KM20L2 colon = system: KM20L2 colon

SMILES | TGI (SF-539 CNS) [µM] | TGI (OVCAR-8 ovarian) [µM] | TGI (SF-268 CNS) [µM] | TGI (LOX IMVI melanoma) [µM] | TGI (HCC-2998 colon) [µM] | TGI (UACC-257 melanoma) [µM] | TGI (HL-60(TB) leukemia) [µM] | TGI (HT29 colon) [µM] | TGI (SK-OV-3 ovarian) [µM] | TGI (MOLT-4 leukemia) [µM] | TGI (SNB-75 CNS) [µM] | TGI (RXF 393 renal) [µM] | TGI (MALME-3M melanoma) [µM] | TGI (COLO 205 colon) [µM] | TGI (HS 578T breast) [µM] | TGI (OVCAR-3 ovarian) [µM] | TGI (SR leukemia) [µM] | TGI (OVCAR-4 ovarian) [µM] | TGI (CAKI-1 renal) [µM] | TGI (KM20L2 colon) [µM]
CN(NC(=O)c1ccco1)C1=NCCN1 | > 100 | > 100 | > 100 | > 100 | > 100 | > 100 | > 100 | > 100 | > 100 | > 100 | > 100 | > 100 | > 100 | > 100 | > 100 | > 100 | > 100 | > 100 |  | 
CC1=NN(c2nc(N)nc(CCl)n2)CC1 | 57.9 | 48.6 | > 100 |  | > 100 | > 100 | 40 | > 100 | > 100 | 68.9 | 74.1 | > 100 |  | 36.3 | > 100 | 35.3 | 61.7 | 32.2 | 21.4 | 
OCC(CN1CCCCC1)(CN1CCCCC1)CN1CCCCC1 | > 100 | > 100 | > 100 | > 100 | > 100 | > 100 | > 100 | > 100 | > 100 | > 100 |  | > 100 | > 100 | > 100 | > 100 | > 100 | > 100 | > 100 | > 100 | 
Cc1ccc([N+](=O)[O-])c2c(NCCNC(=O)Cn3ccnc3[N+](=O)[O-])ccnc12 | > 100 | > 100 | > 100 | > 100 | > 100 | 87.7 | > 100 | > 100 | 59.7 | > 100 | > 100 | 16.5 | 89.1 | > 100 | > 100 | 52.6 | > 100 | > 100 | > 100 | 
CC1=NN(C(=O)CC(=O)Nc2ccccc2C)C(=O)C1N=Nc1ccc(C(=O)O)cc1 (stereo not given) | > 100 | > 100 | > 100 | > 100 | > 100 | > 100 | > 100 | > 100 |  | > 100 | > 100 | > 100 | > 100 | > 100 | > 100 | > 100 | > 100 | > 100 | > 100 | 
CCCCCCCC1(N=[N+]=[N-])C(=O)c2ccccc2N(C)C1=O (stereo not given) | > 100 | > 100 | > 100 | > 100 | > 100 | > 100 | 99.1 | > 100 | > 100 | > 100 | > 100 | > 100 | > 100 | > 100 | > 100 | > 100 | > 100 | > 100 | > 100 | 
O=c1cc(-c2ccccc2)[nH]c2cc(F)c(F)cc12 | 2.33 | > 100 | > 20.8 | > 100 | > 30.9 | > 100 | 3.14 | > 46.4 | > 56.1 | > 100 | 90 | 0.616 | > 100 | 34.7 | > 28.9 | 43.7 | > 100 | > 100 | > 100 | 
O=C(O)CNC(=O)CO/N=C1/C(c2c(O)[nH]c3ccccc23)=Nc2ccccc21 | > 100 | > 100 | > 100 | > 100 | > 100 | > 100 | > 100 | > 100 | > 100 | > 100 | > 100 | > 100 | > 100 | > 100 | > 100 | > 100 | > 100 | > 100 | > 100 | 
CCCCON1C[C@@H](O)C(O)[C@@H](O)C1 (stereo not given in full) | > 100 | > 100 | > 100 | > 100 | > 100 | > 100 | > 100 | > 100 |  | > 100 | > 100 | > 100 | > 100 | > 100 | > 100 | > 100 | > 100 | > 100 | > 100 | 
COC1=C2CC(C)CC(OC)[C@@H](OC(=O)CCN)[C@H](C)/C=C(\C)C(OC(N)=O)C(OC)/C=C\C=C(/C)C(=O)NC(=CC1=O)C2=O (stereo not given in full) | 14.9 | 15.5 | 26.2 | 2.22 | 5.69 | 2.82 | 0.757 | 13.1 | 25.4 | 2.53 | 35.1 | 17.5 | 16.3 | 0.964 | 16.9 | 8.19 | 8.71 | 12.6 | 17.7 | 
COc1ccc(NC(=O)CC(=O)N2N=C(N3CCCCC3)CC2c2ccccc2)cc1 (stereo not given) | > 100 | > 100 | > 100 | > 100 | > 100 | > 100 | > 100 | > 100 |  | > 100 | > 100 | > 100 | > 100 | > 100 | > 100 | > 100 | > 100 | > 100 | > 100 | 
COc1cc(OC)cc(Oc2nc3ccccc3nc2C(=O)O)c1 |  | > 100 | > 100 | > 100 | > 100 | > 100 | > 100 | > 100 | > 100 | > 100 | > 100 | > 100 | > 100 | > 100 | > 100 | > 100 | > 100 | > 100 | > 100 | 
O=C(O)CN1CCNCCN(CP(=O)(O)O)CC1 | > 100 | > 22.9 | > 100 | > 100 | > 100 | > 100 | 8.41 |  | > 100 | > 100 | > 100 | > 100 | > 100 | > 100 | > 100 | > 100 | > 100 | > 100 | > 100 | 
CC(C)/C(Cl)=N\OC(=O)Nc1cccc(F)c1 | 35.4 | 31.1 | 58 | 5.31 | 36.9 | 30 | 4.05 | 43.6 | 35.2 | 6.29 | 55.6 | 31 | 14.4 | 5.87 | 63.2 | 32.4 | 6.6 | 25.4 | 32.5 | 
CC1(C)COC(C23C4C5C2C2C3C4C52I)=N1 (stereo not given) | > 100 | > 100 | > 100 |  | > 100 | > 100 |  | > 100 | > 100 | > 100 |  | > 100 | > 100 | > 100 |  | > 100 |  | > 100 | > 100 | > 100
CC1(c2ccc(F)cc2)CC(c2ccc(F)cc2)=C(C#N)C(=C(C#N)C#N)N1 (stereo not given) | 78.4 | 54 | 37 | 38.6 | 28.2 | 28.9 | 30.7 | 32.1 | 37.3 | 34.8 | 34.2 | 28.3 | 37.2 | 27.9 | 64.1 | 19.4 | 42.2 | 31.3 | 30.2 | 
CC1=NN(c2cccc(Cl)c2)C2(SCC(=O)N2c2nc3ccccc3s2)/C1=C\c1ccc(Cl)cc1 (stereo not given) | 89.6 | 40.7 | 46.2 | 45.2 | 27.5 | 63.9 | 24.3 | 42.7 | 47.3 | 20.8 |  | 38.4 |  |  | 73.6 | 37.2 | 15.9 | 55.1 | 39.2 | 
CCCN(CCCCC(NC(C)=O)C(=O)NCc1ccccc1)C(=O)N(C)N=O (stereo not given) | > 100 | > 100 | > 100 | > 100 | > 100 | > 100 |  | > 100 | > 100 | > 100 | > 100 | > 100 | > 100 | > 100 |  | > 100 |  | > 100 | > 100 | > 100
N#Cc1c(-c2ccc(Cl)cc2)cc(-c2ccc(Nc3ccnc4cc(C(F)(F)F)ccc34)cc2)[nH]c1=O | 18.5 | > 100 | > 100 | > 23.5 | > 100 | > 100 | 35 | > 48.9 | 73.1 | 20.7 | > 50 | 22.6 | > 100 | 59.4 | > 100 | 20.6 | 8.93 | 24.2 | > 64.3 | 
COc1cc(O)cc(/C=C/c2ccc(O)cc2)c1 | > 100 | > 100 | > 100 |  |  | > 100 | > 100 | > 100 | > 100 | > 100 | > 100 | > 100 | > 100 | > 100 | > 100 | > 100 | > 100 | > 100 | 78.2 | 
CSC1=C(C(=O)Nc2ccc(Cl)cc2)C(N)=NC1=O | > 100 | > 100 | > 100 | > 100 | > 100 | > 100 | > 100 | > 100 | > 100 | > 100 | > 100 | > 100 | > 100 | > 100 | > 100 | > 100 | > 100 | > 100 | > 100 | 
COc1ccc(C[C@@H]2Cc3cc(OC)c(OC)cc3CN2C)cc1 |  | > 100 | > 100 |  | > 100 | > 100 |  | > 100 |  | > 100 | > 100 |  | > 100 |  |  | > 100 |  | > 100 | > 100 | > 100
C#CCOC(=O)c1ccccc1O | > 100 | > 100 | > 100 | > 100 |  | > 100 | > 100 |  | > 100 | > 100 | > 100 | > 100 |  | > 100 | > 100 |  | > 100 | > 100 | > 100 | 
CCN(CC)CC(=O)Nc1c(C(N)=O)nnn1Cc1cc(Cl)c(C(=O)c2ccc(Cl)cc2)c(Cl)c1 | 31.4 | 34.7 | 45.5 | 32.1 | 32.1 | 32.6 | 39.5 | 38.6 | 51.5 | 56 | 59 | 23.8 |  | 33.2 | 33 | 31.7 | 68.9 | > 100 | 65.1 | 
COc1ccc(N(C)S(=O)(=O)c2ccccc2)cc1 | > 100 | > 100 | > 100 | > 100 | > 100 | > 100 | > 100 | > 100 | > 100 | > 100 | > 100 | > 100 | > 100 | > 100 | > 100 | > 100 | > 100 | > 100 | > 100 | 
CCC(=O)Nc1ccc(N=Cc2cccc(Oc3ccccc3)c2)cc1 | 35.9 | 49.1 | > 100 | > 100 |  |  | 63 | > 100 | > 100 | 76.8 | > 100 | > 100 | > 100 | > 100 | > 100 | > 100 | 67.9 | > 100 | > 100 | 
